From ChEMBL document CHEMBL1909046, “DrugMatrix in vitro pharmacology data”

Assays:
[1] = biological target: Vascular endothelial growth factor receptor 1 (Homo sapiens, UniProt P17948); assay type: cell-based; conditions: huvec; also: in other assays of this panel Not Active means under 50% inhibition at 10 µM
Endothelin-1 receptor = biological target: T1, Endothelin-1 receptor (Homo sapiens, UniProt P25101); assay type: cell membranes, Membrane; conditions: cho-k1; also: in other assays of this panel Not Active means under 50% inhibition at 10 µM
T1 sequence (P25101 whole entry): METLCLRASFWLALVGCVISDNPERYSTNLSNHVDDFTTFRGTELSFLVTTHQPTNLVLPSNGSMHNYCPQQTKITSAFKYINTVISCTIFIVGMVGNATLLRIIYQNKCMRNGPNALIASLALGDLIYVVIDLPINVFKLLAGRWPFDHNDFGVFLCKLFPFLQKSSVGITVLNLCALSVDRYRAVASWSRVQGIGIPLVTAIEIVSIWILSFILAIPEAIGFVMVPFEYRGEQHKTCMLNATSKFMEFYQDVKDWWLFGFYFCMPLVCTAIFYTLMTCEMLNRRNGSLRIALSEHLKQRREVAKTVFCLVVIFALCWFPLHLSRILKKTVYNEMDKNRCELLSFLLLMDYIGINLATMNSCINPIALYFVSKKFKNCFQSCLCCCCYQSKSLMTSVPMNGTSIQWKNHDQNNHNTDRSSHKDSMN

Histamine H2 receptor = Histamine H2 receptor (Homo sapiens, UniProt P25021); assay type: cell membranes, CHO-K1, Membrane; also: in other assays of this panel Not Active means under 50% inhibition at 10 µM
Histamine H2 receptor, sequence (P25021 whole entry): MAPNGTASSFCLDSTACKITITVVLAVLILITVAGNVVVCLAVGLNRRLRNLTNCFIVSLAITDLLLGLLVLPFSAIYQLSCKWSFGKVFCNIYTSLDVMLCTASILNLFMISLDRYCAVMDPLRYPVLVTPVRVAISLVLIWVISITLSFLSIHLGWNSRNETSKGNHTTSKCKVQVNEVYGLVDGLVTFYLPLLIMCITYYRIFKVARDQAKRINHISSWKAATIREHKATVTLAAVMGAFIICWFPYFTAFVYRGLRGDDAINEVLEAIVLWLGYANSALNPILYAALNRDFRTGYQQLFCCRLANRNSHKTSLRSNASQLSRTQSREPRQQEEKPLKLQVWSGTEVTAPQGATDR

Melanocortin receptor 3 = Melanocortin receptor 3 (Homo sapiens, UniProt P41968); assay type: cell membranes, Membrane; conditions: hek293; also: in other assays of this panel Not Active means under 50% inhibition at 10 µM
Melanocortin receptor 3, sequence (P41968 whole entry): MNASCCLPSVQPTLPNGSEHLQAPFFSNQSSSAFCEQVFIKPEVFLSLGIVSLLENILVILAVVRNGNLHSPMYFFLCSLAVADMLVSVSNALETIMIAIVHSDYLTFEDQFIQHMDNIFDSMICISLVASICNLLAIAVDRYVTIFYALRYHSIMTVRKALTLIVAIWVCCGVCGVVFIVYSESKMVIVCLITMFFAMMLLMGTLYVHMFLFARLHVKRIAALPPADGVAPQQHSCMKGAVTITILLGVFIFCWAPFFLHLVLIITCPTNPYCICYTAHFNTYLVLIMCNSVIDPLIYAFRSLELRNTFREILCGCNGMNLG

Melanocortin receptor 4 = Melanocortin receptor 4 (Homo sapiens, UniProt P32245); assay type: cell membranes, Membrane; conditions: hek293; also: in other assays of this panel Not Active means under 50% inhibition at 10 µM
Melanocortin receptor 4, sequence (P32245 whole entry): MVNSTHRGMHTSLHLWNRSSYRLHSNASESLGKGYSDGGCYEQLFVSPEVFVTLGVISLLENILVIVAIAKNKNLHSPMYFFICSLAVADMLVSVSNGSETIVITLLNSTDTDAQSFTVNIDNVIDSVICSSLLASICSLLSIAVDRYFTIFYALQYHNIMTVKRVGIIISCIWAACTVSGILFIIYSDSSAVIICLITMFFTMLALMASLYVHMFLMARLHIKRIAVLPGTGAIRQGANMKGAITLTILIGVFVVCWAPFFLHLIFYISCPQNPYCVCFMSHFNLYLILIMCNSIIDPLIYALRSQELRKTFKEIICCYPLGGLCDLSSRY

[2] = DRUGMATRIX: Potassium Channel [KATP] radioligand binding (ligand: [3H] Glyburide); assay type: cell membranes, Membrane; conditions: hit-t15, Not Active = under 50% inhibition at 10 µM

Vascular endothelial growth factor receptor 1, sequence (P17948 whole entry): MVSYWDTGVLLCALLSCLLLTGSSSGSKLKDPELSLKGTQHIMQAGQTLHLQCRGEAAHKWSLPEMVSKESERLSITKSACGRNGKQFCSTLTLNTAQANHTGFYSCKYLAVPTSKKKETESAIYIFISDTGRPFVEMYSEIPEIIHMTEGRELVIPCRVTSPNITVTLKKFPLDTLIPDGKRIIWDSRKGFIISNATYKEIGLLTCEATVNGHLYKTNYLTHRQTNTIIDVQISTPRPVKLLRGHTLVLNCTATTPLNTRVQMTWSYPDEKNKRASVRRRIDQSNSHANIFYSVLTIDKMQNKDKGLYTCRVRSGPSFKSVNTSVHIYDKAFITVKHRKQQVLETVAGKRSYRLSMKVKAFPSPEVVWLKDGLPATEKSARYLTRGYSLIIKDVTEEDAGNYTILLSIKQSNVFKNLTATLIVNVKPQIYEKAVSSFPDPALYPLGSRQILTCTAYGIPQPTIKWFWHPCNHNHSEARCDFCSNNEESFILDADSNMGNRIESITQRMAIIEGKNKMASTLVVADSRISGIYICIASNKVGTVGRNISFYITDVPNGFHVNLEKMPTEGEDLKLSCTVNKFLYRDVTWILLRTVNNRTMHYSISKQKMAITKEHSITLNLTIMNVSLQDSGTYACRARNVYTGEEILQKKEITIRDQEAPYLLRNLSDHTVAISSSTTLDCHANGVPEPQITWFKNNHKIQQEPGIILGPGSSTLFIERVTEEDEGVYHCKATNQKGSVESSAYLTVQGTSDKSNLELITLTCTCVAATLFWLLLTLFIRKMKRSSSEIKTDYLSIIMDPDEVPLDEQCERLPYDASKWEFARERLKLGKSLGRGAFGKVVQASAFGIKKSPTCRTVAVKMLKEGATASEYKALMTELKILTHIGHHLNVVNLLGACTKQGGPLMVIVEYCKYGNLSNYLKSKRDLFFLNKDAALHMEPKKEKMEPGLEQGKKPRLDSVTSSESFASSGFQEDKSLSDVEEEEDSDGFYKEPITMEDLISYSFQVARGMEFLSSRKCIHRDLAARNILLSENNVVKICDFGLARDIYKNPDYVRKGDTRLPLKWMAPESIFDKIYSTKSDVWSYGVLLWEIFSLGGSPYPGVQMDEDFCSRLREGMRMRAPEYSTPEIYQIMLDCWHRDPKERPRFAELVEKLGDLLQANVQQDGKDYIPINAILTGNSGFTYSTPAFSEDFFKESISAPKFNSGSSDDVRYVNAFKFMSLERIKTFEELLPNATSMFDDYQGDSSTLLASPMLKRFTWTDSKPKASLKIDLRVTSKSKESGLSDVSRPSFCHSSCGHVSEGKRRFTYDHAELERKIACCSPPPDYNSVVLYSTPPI

Structure (SMILES) | IC50 [1] | IC50 (Endothelin-1 receptor) | IC50 (Histamine H2 receptor; cho-k1) | IC50 (Melanocortin receptor 3) | IC50 (Melanocortin receptor 4) | IC50 [2] | Ki [2] | IC50 ([2]; read-out: IC50) [µM] | Ki ([2]; read-out: Ki) [µM] | IC50 (Histamine H2 receptor; read-out: IC50) [µM] | Ki (Histamine H2 receptor; read-out: Ki) [µM]
CC1=NN(c2ccccc2)C(=O)C1 [EDARAVONE] | Not Active | Not Active | Not Active | Not Active | Not Active | Not Active | Not Active | – | – | – | –
CC(C)C[C@H]1C(=O)N2CCC[C@H]2[C@]2(O)O[C@](NC(=O)[C@@H]3C=C4c5cccc6[nH]cc(c56)C[C@H]4N(C)C3)(C(C)C)C(=O)N12 [ERGOCRYPTINE] | Not Active | Not Active | Not Active | Not Active | Not Active | Not Active | Not Active | – | – | – | –
C[C@]12CC[C@@H]3c4ccc(O)cc4CC[C@H]3[C@@H]1C[C@@H](O)[C@@H]2O [ESTRIOL] | Not Active | Not Active | Not Active | Not Active | Not Active | Not Active | Not Active | – | – | – | –
C#C[C@]1(O)CC[C@H]2[C@@H]3CCC4=CC(=O)CC[C@]4(C)[C@H]3CC[C@@]21C [ETHISTERONE] | Not Active | Not Active | Not Active | Not Active | Not Active | Not Active | Not Active | – | – | – | –
CC(O)(P(=O)(O)O)P(=O)(O)O [ETIDRONIC ACID] | Not Active | Not Active | Not Active | Not Active | Not Active | Not Active | Not Active | – | – | – | –
CC(C)(C(=O)O)c1ccc(C(O)CCCN2CCC(C(O)(c3ccccc3)c3ccccc3)CC2)cc1 (configuration not stated) [FEXOFENADINE] | Not Active | Not Active | Not Active | Not Active | Not Active | Not Active | Not Active | – | – | – | –
CN1CCN(c2c(F)cc3c(=O)c(C(=O)O)cn(CCF)c3c2F)CC1 [FLEROXACIN] | Not Active | Not Active | Not Active | Not Active | Not Active | Not Active | Not Active | – | – | – | –
O=c1[nH]c(=O)n([C@H]2C[C@H](O)[C@@H](CO)O2)cc1F [FLOXURIDINE] | Not Active | Not Active | Not Active | Not Active | Not Active | Not Active | Not Active | – | – | – | –
COC(=O)Nc1nc2cc(C(=O)c3ccc(F)cc3)ccc2[nH]1 [FLUBENDAZOLE] | Not Active | Not Active | Not Active | Not Active | Not Active | Not Active | Not Active | – | – | – | –
CC(=O)OCC(=O)[C@@]1(O)CC[C@H]2[C@@H]3CCC4=CC(=O)CC[C@]4(C)[C@@]3(F)[C@@H](O)C[C@@]21C [FLUDROCORTISONE ACETATE] | Not Active | Not Active | Not Active | Not Active | Not Active | Not Active | Not Active | – | – | – | –
CCOC(=O)c1ncn2c1CN(C)C(=O)c1cc(F)ccc1-2 [FLUMAZENIL] | Not Active | Not Active | Not Active | Not Active | Not Active | Not Active | Not Active | – | – | – | –
CC(=O)OCC(=O)[C@@]12OC(C)(C)O[C@@H]1C[C@H]1[C@@H]3C[C@H](F)C4=CC(=O)C=C[C@]4(C)[C@@]3(F)[C@@H](O)C[C@@]12C [FLUOCINONIDE] | Not Active | Not Active | Not Active | Not Active | Not Active | Not Active | Not Active | – | – | – | –
O=C(O)P(=O)(O)O [FOSCARNET] | Not Active | Not Active | Not Active | Not Active | Not Active | Not Active | Not Active | – | – | – | –
Cc1ccc(C)c(OCCCC(C)(C)C(=O)O)c1 [GEMFIBROZIL] | Not Active | Not Active | Not Active | Not Active | Not Active | Not Active | Not Active | – | – | – | –
O=c1c(-c2ccc(O)cc2)coc2cc(O)cc(O)c12 [GENISTEIN] | Not Active | Not Active | Not Active | Not Active | Not Active | Not Active | Not Active | – | – | – | –
CCC1=C(C)CN(C(=O)NCCc2ccc(S(=O)(=O)NC(=O)N[C@H]3CC[C@H](C)CC3)cc2)C1=O [GLIMEPIRIDE] | Not Active | Not Active | Not Active | Not Active | Not Active | – | – | 0.1 | 0.011 | – | –
Nc1cc(-c2ccncc2)c[nH]c1=O [INAMRINONE] | Not Active | Not Active | Not Active | Not Active | Not Active | Not Active | Not Active | – | – | – | –

Structure (SMILES) | IC50 [1] | IC50 (Endothelin-1 receptor) | IC50 (Histamine H2 receptor; cho-k1) | IC50 (Melanocortin receptor 3) | IC50 (Melanocortin receptor 4) | IC50 [2] | Ki [2] | IC50 ([2]; read-out: IC50) [µM] | Ki ([2]; read-out: Ki) [µM] | IC50 (Histamine H2 receptor; read-out: IC50) [µM] | Ki (Histamine H2 receptor; read-out: Ki) [µM]
CCCCC1=NC2(CCCC2)C(=O)N1Cc1ccc(-c2ccccc2-c2nnn[nH]2)cc1 [IRBESARTAN] | Not Active | Not Active | Not Active | Not Active | Not Active | Not Active | Not Active | – | – | – | –
CN1CCC(=C2c3ccccc3CC(=O)c3sccc32)CC1 [KETOTIFEN] | Not Active | Not Active | – | Not Active | Not Active | Not Active | Not Active | – | – | 4.13 | 4.06
N[C@@H](Cn1ccc(=O)c(O)c1)C(=O)O [L-MIMOSINE] | Not Active | Not Active | Not Active | Not Active | Not Active | Not Active | Not Active | – | – | – | –
C[N+](C)(C)C[C@H](O)CC(=O)[O-] [LEVOCARNITINE] | Not Active | Not Active | Not Active | Not Active | Not Active | Not Active | Not Active | – | – | – | –
C[C@H]1COc2c(N3CCN(C)CC3)c(F)cc3c(=O)c(C(=O)O)cn1c23.C[C@H]1COc2c(N3CCN(C)CC3)c(F)cc3c(=O)c(C(=O)O)cn1c23.O [LEVOFLOXACIN] | Not Active | Not Active | Not Active | Not Active | Not Active | Not Active | Not Active | – | – | – | –
CN1CCCC(CN2c3ccccc3Sc3ccccc32)C1 (configuration not stated) [MEPAZINE] | Not Active | Not Active | Not Active | Not Active | Not Active | Not Active | Not Active | – | – | – | –
Cc1cccc(C)c1NC(=O)C1CCCCN1C (configuration not stated) [MEPIVACAINE] | Not Active | Not Active | Not Active | Not Active | Not Active | Not Active | Not Active | – | – | – | –
CN(C)C(=N)NC(=N)N [METFORMIN] | Not Active | Not Active | Not Active | Not Active | Not Active | Not Active | Not Active | – | – | – | –
CC(C)(C)NCC(O)COc1cccc2c1CC(O)C(O)C2 (configuration not stated) [NADOLOL] | Not Active | Not Active | Not Active | Not Active | Not Active | Not Active | Not Active | – | – | – | –
C[C@]12CC[C@H]3[C@@H](CCC4=CC(=O)CC[C@@H]43)[C@@H]1CC[C@@H]2O [NANDROLONE] | Not Active | Not Active | Not Active | Not Active | Not Active | Not Active | Not Active | – | – | – | –
C[C@@H]1C/C=C/C=C/C=C/C=C/[C@H](O[C@@H]2O[C@H](C)[C@@H](O)[C@H](N)[C@@H]2O)C[C@@H]2O[C@](O)(C[C@@H](O)C[C@H]3O[C@@H]3/C=C/C(=O)O1)C[C@H](O)[C@H]2C(=O)O [NATAMYCIN] | Not Active | Not Active | Not Active | Not Active | Not Active | Not Active | Not Active | – | – | – | –
CN(C)C(=O)Oc1cccc([N+](C)(C)C)c1.[Br-] [NEOSTIGMINE BROMIDE] | Not Active | Not Active | Not Active | Not Active | Not Active | Not Active | Not Active | – | – | – | –
NC(=O)c1cccnc1 [NIACINAMIDE] | Not Active | Not Active | Not Active | Not Active | Not Active | Not Active | Not Active | – | – | – | –
CS(=O)(=O)Nc1ccc([N+](=O)[O-])cc1Oc1ccccc1 [NIMESULIDE] | Not Active | Not Active | Not Active | Not Active | Not Active | Not Active | Not Active | – | – | – | –
CN1C(=O)CN=C(c2ccccc2)c2cc([N+](=O)[O-])ccc21 [NIMETAZEPAM] | Not Active | Not Active | Not Active | Not Active | Not Active | Not Active | Not Active | – | – | – | –
COc1ccc2c(c1OC)C(=O)O[C@@H]2[C@H]1c2c(cc3c(c2OC)OCO3)CCN1C [NOSCAPINE] | Not Active | Not Active | Not Active | Not Active | Not Active | Not Active | Not Active | – | – | – | –
